According to doi:10.1101/2025.03.14.643404, “A Bivalent Molecular Glue Linking Lysine Acetyltransferases to Oncogene-induced Cell Death” (bioRxiv, 2025):
pIC50: −log10 of the molar value.

Columns and labels:
DB = assay: Cell viability, 7 days compound treatment (Cell Titer-Glo), DB; assay type: cell-based; conditions: Homo sapiens, 168 h, read-out: IC50 of antiproliferation
Experimental: Fifteen thousand cells were seeded in 100 μl of media per well of a U-bottom 96-well plate and treated with digitally dispensed drugs (Tecan D300e) for the indicated times and doses. After 96 hours, plates were centrifuged for 750 rpm for 3 minutes, and old media was exchanged for 100 μl of fresh media. Drug treatment was then repeated at the indicated doses. 72 hours following media change, cells were transferred to 96 well flat-bottom opaque plates. Viability was measured by adding 25 μL Cell Titer-Glo reagent (Promega G7570) to each well and luminescence was measured (BMG Labtech Pherastar FS). The background luminescence was subtracted, and the signal was normalized to DMSO-treated cells. IC50 measurements on cell lines were calculated using at least three biological replicates by separate cell passages. Fit of dose–response curves to data and statistical analysis was performed using GraphPad PRISM using the four-parameter log(inhibitor) vs response function.

SUDHL5 cells = assay: TUNEL and total DNA content co-staining of SUDHL5; assay type: cell-based, human; conditions: SUDHL5, 10 nM
Experimental: 1 million SUDHL5 cells were plated in 6 mL of media in 6-well plates and treated with compound for indicated timepoints and doses. 1.2 million total cells were counted, washed in PBS, fixed in 4% paraformaldehyde/PBS at a concentration of 10M/mL for 15 minutes at room temperature in the dark, washed in PBS, and stored in 70% ethanol at −20°C until ready for processing (at least 24 hours). DNA breaks in fixed cells were labeled with bromolated deoxyuridine (Br-dUTP or BrdU) by incubation with deoxynucleotidyl transferase (TdT) for 60 min at 37°C, washed, and stained with FITC-labeled anti-BrdU antibodies for 30 min at room temperature in the dark (BD 556405). Cells were resuspended in 1% BSA/PBS with 1:100 RNaseA (Invitrogen 12091021) and co-stained with 7-AAD for 30 min at room temperature in the dark (BD 559925). The suspension was gently agitated by shaking and analyzed by flow cytometry within 1 hour (BD Accuri).

H2BK20ac = assay: ChIP-seq for H2BK20ac in SUDHL5; assay type: cell-based, human; conditions: SUDHL5, 1 nM, 1 hour
Experimental: 25–30 million cells were treated with TCIP3 or DMSO for indicated timepoints. Cells were washed in PBS containing TCIP3 or DMSO and crosslinked for 11 min in CiA Fix Buffer (50 mM HEPES pH 8.0, 1 mM EDTA, 0.5 mM EGTA, 100 mM NaCl) with addition of formaldehyde to a final concentration of 1%. The crosslinking reaction was quenched by glycine added at 0.125 M final concentration. Crosslinked cells were centrifuged at 1,000 × g for 5 min. […] Library size distributions were confirmed using an Agilent Bioanalyzer and High Sensitivity DNA reagents (Agilent 5067) and concentrations determined by qPCR. […]
The data quality was checked using fastq (https://www.bioinformatics.babraham.ac.uk/projects/fastqc/). The raw reads were trimmed from adapters with cutadapt (parameters: -a […] -A […]) and raw reads were aligned to hg38 human genome assembly using bowtie2 (parameters: --local --maxins 1000). Low quality reads, duplicated reads and reads with multiple alignments were removed using samtools[120] and Picard (https://broadinstitute.github.io/picard/). macs2[121] was used to map position of peaks with FDR cutoff of 0.05. […] All browser tracks and metaprofiles shown were calculated with sequence-depth-normalized, replicate-merged (bigWigMerge[125]) and, for ChIP-seq, input-subtracted data (deeptools bigWigCompare). […]

In the case of `CNC(=O)COc1cc2cc(Nc3nc(N4CCC(C(=O)N5CCN(CCC(=O)N6CCC(n7nc(N8CCCc9cc(-c%10cnn(C)c%10)c(C(F)F)cc98)c8c7CCN(C(=O)NC)C8)CC6)CC5)CC4)ncc3Cl)cc(OC)c2n(C)c1=O` [TCIP3], the pIC50 (DB) was 8.01, the “predominant cellular effect after 24 hours” value (SUDHL5 cells) was “arrest cells in G1” and the H2BK20ac peaks gained (H2BK20ac) was 936. The H2BK20ac peaks lost (H2BK20ac) was 4,346.
